Among the test systems are OVCAR-4 ovarian; SNB-19 CNS; CAKI-1 renal; HS 578T breast; NCI/ADR-RES ovarian; SNB-75 CNS; NCI-H460 lung; ACHN renal; OVCAR-3 ovarian; HOP-62 NSCLC.
Holding throughout (experiment): NCI-60 cell line screen, 48 h

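These data come from cells grown in 96-well plates and exposed to compound for 48 hours at five concentrations. TGI: total growth inhibition.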

Regarding `C[C@H](CCc1nc(C#N)c(N)o1)[C@H]1CC[C@H]2[C@@H]3CCC4C[C@@H](O)CC[C@]4(C)[C@H]3C[C@@H](O)[C@]12C` (stereo not given in full), the TGI in the test on OVCAR-4 ovarian amounted to 4.92 µM; in the test with SNB-19 CNS, 31 µM; in the test with CAKI-1 renal, 28.4 µM; with HS 578T breast, 31.6 µM; in the test on NCI/ADR-RES ovarian, 25 µM; in the test on SNB-75 CNS, 25 µM. Besides, the TGI with NCI-H460 lung is 31.3 µM; with ACHN renal it was 28.6 µM; with OVCAR-3 ovarian, 27.3 µM; in the test on HOP-62 NSCLC it was 40.8 µM.

Regarding `CC1=NN(c2ccccc2)C(=O)/C1=C\c1c(C)[nH]n(-c2ccccc2)c1=O`, the TGI with OVCAR-4 ovarian, in the test with SNB-19 CNS, in the test on CAKI-1 renal, in the test on HS 578T breast, in the test on NCI/ADR-RES ovarian and in the test with SNB-75 CNS was over 100 µM each time. The TGI with NCI-H460 lung, in the test with ACHN renal, with OVCAR-3 ovarian and in the test with HOP-62 NSCLC was over 100 µM each time.

Consider `O=C1CC(c2cccc([N+](=O)[O-])c2)C2(C(=O)NC(=S)NC2=O)C(c2cccc([N+](=O)[O-])c2)C1` (stereo not given), for which the TGI in the test on OVCAR-4 ovarian is over 100 µM; with SNB-19 CNS, 58.8 µM; in the test with CAKI-1 renal it was 64.3 µM; in the test on HS 578T breast, 84.3 µM; in the test with NCI/ADR-RES ovarian, over 100 µM; in the test on SNB-75 CNS, over 100 µM. Besides, the TGI with NCI-H460 lung, in the test with ACHN renal, in the test on OVCAR-3 ovarian and with HOP-62 NSCLC was over 100 µM in each case.

Regarding `Cc1c(C(=O)O)sc2nc[nH]c(=O)c12`, the TGI with OVCAR-4 ovarian was over 100 µM; in the test on SNB-19 CNS, over 100 µM; with CAKI-1 renal, over 100 µM; in the test with HS 578T breast, 79.5 µM; in the test with NCI/ADR-RES ovarian it was over 100 µM; in the test with SNB-75 CNS, over 100 µM. Moreover, the TGI in the test on NCI-H460 lung, in the test on ACHN renal, in the test with OVCAR-3 ovarian and in the test on HOP-62 NSCLC was over 100 µM each time.

As to `COC(=O)[C@@H]1C=CCN1S(=O)(=O)c1ccc(C)cc1`, the TGI in the test on OVCAR-4 ovarian was over 100 µM; in the test with SNB-19 CNS, over 100 µM; in the test with CAKI-1 renal, 57.8 µM; in the test with HS 578T breast, over 100 µM; in the test on NCI/ADR-RES ovarian it was over 100 µM; in the test with SNB-75 CNS, over 100 µM. The TGI in the test on NCI-H460 lung, in the test on ACHN renal, with OVCAR-3 ovarian and in the test with HOP-62 NSCLC was over 100 µM in each case.

Take `O=[N+]([O-])/C(Cl)=C(\NCCO)C(Cl)=C(Cl)Cl`: the TGI in the test on OVCAR-4 ovarian is over 100 µM; in the test on SNB-19 CNS, over 100 µM; in the test with CAKI-1 renal, over 100 µM; in the test on HS 578T breast, over 91.5 µM; in the test on NCI/ADR-RES ovarian, over 77.9 µM; with SNB-75 CNS, over 100 µM. Moreover, the TGI in the test on NCI-H460 lung, with ACHN renal, in the test with OVCAR-3 ovarian and in the test on HOP-62 NSCLC was over 100 µM throughout.

As for `COc1ccc(-c2csc3c2[N+]2(C)C=CC=C2C3N2CCCC2)cc1` (stereo not given), the TGI with OVCAR-4 ovarian is over 100 µM; with SNB-19 CNS it was over 100 µM; in the test on CAKI-1 renal, over 100 µM; in the test with HS 578T breast, 98.6 µM; in the test on NCI/ADR-RES ovarian, 63.7 µM; in the test on SNB-75 CNS, 36.8 µM. Also, the TGI in the test with NCI-H460 lung was 46.8 µM; with ACHN renal, over 100 µM; in the test on OVCAR-3 ovarian it was 52.6 µM; in the test on HOP-62 NSCLC it was over 100 µM.

Turning to `CC(Cl)(CCC(Cl)C(C)(C)Cl)C(=O)CBr` (stereo not given), the TGI in the test with OVCAR-4 ovarian was 7.46 µM; with SNB-19 CNS it was over 85.5 µM; in the test on CAKI-1 renal it was 27.8 µM; with HS 578T breast it was 58.1 µM; in the test with NCI/ADR-RES ovarian, 74.2 µM; in the test with SNB-75 CNS it was 26.5 µM. Besides, the TGI with NCI-H460 lung was 32.3 µM; in the test with ACHN renal, 20.9 µM; in the test on OVCAR-3 ovarian, 29.5 µM; with HOP-62 NSCLC, 32.5 µM.

Regarding `CCOP(=O)(OCC)C(c1ccccc1)N(C(=O)NC(F)(F)F)c1ccc(C)cc1` (stereo not given), the TGI in the test with OVCAR-4 ovarian, with SNB-19 CNS, in the test with CAKI-1 renal, with HS 578T breast, in the test with NCI/ADR-RES ovarian and in the test on SNB-75 CNS was over 100 µM throughout. The TGI in the test on NCI-H460 lung, in the test with ACHN renal, with OVCAR-3 ovarian and in the test on HOP-62 NSCLC was over 100 µM throughout.

With `O=C(CCC(NC(=O)OCc1ccccc1)C(=O)OCc1ccccc1)Nc1cccc(OCc2ccccc2)c1` (stereo not given), the TGI in the test on OVCAR-4 ovarian was over 100 µM; in the test with SNB-19 CNS it was over 100 µM; in the test with CAKI-1 renal, over 100 µM; in the test with HS 578T breast it was 39.4 µM; with NCI/ADR-RES ovarian, over 100 µM; in the test on SNB-75 CNS it was over 100 µM. The TGI was 53.3 µM in the test with NCI-H460 lung, over 100 µM with ACHN renal, 45.4 µM with OVCAR-3 ovarian and 60.1 µM in the test on HOP-62 NSCLC.

As to `C(=Nc1ccc(-c2nc3ccccc3s2)cc1)c1cccs1`, the TGI with OVCAR-4 ovarian, in the test on SNB-19 CNS, in the test on CAKI-1 renal, in the test on HS 578T breast, in the test with NCI/ADR-RES ovarian and in the test with SNB-75 CNS was over 100 µM each time. For the same compound, the TGI in the test with NCI-H460 lung, in the test with ACHN renal, in the test with OVCAR-3 ovarian and in the test with HOP-62 NSCLC was over 100 µM throughout.

For `O=C(NC1=C(Cl)C(=O)c2ccccc2C1=O)C(=O)c1c(O)c2ccccc2oc1=O`, the TGI in the test on OVCAR-4 ovarian is 19.4 µM; in the test on SNB-19 CNS, 16 µM; in the test with CAKI-1 renal it was 22.6 µM; with HS 578T breast, over 65 µM; in the test with NCI/ADR-RES ovarian it was 20 µM; in the test with SNB-75 CNS, 25 µM. Further, the TGI with NCI-H460 lung came out at 7.68 µM; with ACHN renal, 14 µM; in the test with OVCAR-3 ovarian, 6.79 µM; in the test with HOP-62 NSCLC it was 18.8 µM.

Take `CC1(C)CC(=O)C2=C(C1)NC(=S)C(C#N)C2c1ccccc1` (stereo not given): the TGI with OVCAR-4 ovarian, in the test on SNB-19 CNS, in the test on CAKI-1 renal, in the test with HS 578T breast, in the test with NCI/ADR-RES ovarian and in the test with SNB-75 CNS was over 100 µM throughout. The TGI in the test on NCI-H460 lung, in the test with ACHN renal, with OVCAR-3 ovarian and in the test on HOP-62 NSCLC was over 100 µM in each case.

The values above are taken from PubChem BioAssay (NCI).
